Measured values as given in US20240368150A1 (Hoffmann-La Roche Inc., priority 2021, published 2024).
Read-outs that look alike come from different tables or passages of the source.

Experiments:
primary human T-cells [1] = assay: Proliferation assay after 5 days (CellTiter-Glo, CD3 stimulation; PBS counter screen); format: cell-based; conditions: Homo sapiens, T-cell, 120 h, CD3 stimulation; for Emax: 5 days, normalized to reference compound A1 as stimulator control = 100%, DMSO neutral control, read-out: Emax proliferation (% activation); for EC50: primary human T-cells, CellTiter-Glo after 5 days, EC50 of fitted sigmoidal curve, read-out: Tcell Proliferation CD3 EC50
How it was run: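 ATP-based luminescence (CellTiter-Glo 2.0, room temperature) measured proliferation 5 days after compound addition to CD3-stimulated or unstimulated primary human T-cells. Flags marked compounds that lowered viability or activated unstimulated cells.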

primary human T-cells [2] = test system: primary human T-cells

EC50 (primary human T-cells [2]) [nM] | SMILES | Emax (primary human T-cells [1]) [%] | EC50 (primary human T-cells [1]) [nM]
3240 | Cc1ccncc1-c1nc(-c2cc3c(cc2F)S(=O)(=O)C[C@H](N)C(=O)N3Cc2ccc(Cl)cc2)no1 [Example 310, (3R)-3-amino-5-[(4-chlorophenyl)methyl]-8-fluoro-7-[5-(4-methyl-3-pyridyl)-1,2,4-oxadiazol-3-yl]-1,1-dioxo-2,3-dihydro-1λ^6,5-benzothiazepin-4-one] | 90 | 2710
226 | Cc1nc(F)ccc1-c1nc(-c2cc3c(cc2F)S(=O)(=O)C[C@H](N)C(=O)N3Cc2ccc(Cl)cc2)no1 [Example 312, (3R)-3-amino-5-[(4-chlorophenyl)methyl]-8-fluoro-7-[5-(6-fluoro-2-methyl-3-pyridyl)-1,2,4-oxadiazol-3-yl]-1,1-dioxo-2,3-dihydro-1λ^6,5-benzothiazepin-4-one] | 163 | 80.6
550 | N[C@H]1CS(=O)(=O)c2cc(F)c(-c3noc(C4(C(F)(F)F)CC4)n3)cc2N(Cc2ccc(Cl)cc2)C1=O [Example 318, (3R)-3-amino-5-[(4-chlorophenyl)methyl]-8-fluoro-1,1-dioxo-7-[5-[1-(trifluoromethyl)cyclopropyl]-1,2,4-oxadiazol-3-yl]-2,3-dihydro-1λ^6,5-benzothiazepin-4-one] | 140 | 255
458 | CC(O)(c1nc(-c2cc3c(cc2F)S(=O)(=O)C[C@H](N)C(=O)N3Cc2ccc(Cl)cc2)no1)C(F)(F)F (stereo partly drawn) [Example 319, (3R)-3-amino-5-[(4-chlorophenyl)methyl]-8-fluoro-1,1-dioxo-7-[5-(2,2,2-trifluoro-1-hydroxy-1-methyl-ethyl)-1,2,4-oxadiazol-3-yl]-2,3-dihydro-1λ^6,5-benzothiazepin-4-one] | 113 | 244
3210 | N[C@H]1CS(=O)(=O)c2cc(F)c(-c3noc(C4(CO)CCCO4)n3)cc2N(Cc2ccc(Cl)cc2)C1=O (stereo partly drawn) [Example 320, (3R)-3-amino-5-[(4-chlorophenyl)methyl]-8-fluoro-7-[5-[2-(hydroxymethyl)tetrahydrofuran-2-yl]-1,2,4-oxadiazol-3-yl]-1,1-dioxo-2,3-dihydro-1λ^6,5-benzothiazepin-4-one] | 107 | 3060
597 | CC(C)(C#N)c1nc(-c2cc3c(cc2F)S(=O)(=O)C[C@H](N)C(=O)N3Cc2ccc(Cl)cc2)no1 [Example 321, 2-[3-[(3R)-3-amino-5-[(4-chlorophenyl)methyl]-8-fluoro-1,1,4-trioxo-2,3-dihydro-1λ^6,5-benzothiazepin-7-yl]-1,2,4-oxadiazol-5-yl]-2-methyl-propanenitrile] | 130 | 250
740 | Cc1nnc(-c2nc(-c3cc4c(cc3F)S(=O)(=O)C[C@H](N)C(=O)N4Cc3ccc(Cl)cc3)no2)o1 [Example 322, (3R)-3-amino-5-[(4-chlorophenyl)methyl]-8-fluoro-7-[5-(5-methyl-1,3,4-oxadiazol-2-yl)-1,2,4-oxadiazol-3-yl]-1,1-dioxo-2,3-dihydro-1λ^6,5-benzothiazepin-4-one] | 110 | 751
4370 | CN1CC(c2nc(-c3cc4c(cc3F)S(=O)(=O)C[C@H](N)C(=O)N4Cc3ccc(Cl)cc3)no2)CC(C)(C)C1 (stereo partly drawn) [Example 324, (3R)-3-amino-5-[(4-chlorophenyl)methyl]-8-fluoro-1,1-dioxo-7-[5-(1,5,5-trimethyl-3-piperidyl)-1,2,4-oxadiazol-3-yl]-2,3-dihydro-1λ^6,5-benzothiazepin-4-one] | 107 | 341
455 | CN(C)Cc1nc(-c2cc3c(cc2F)S(=O)(=O)C[C@H](N)C(=O)N3Cc2ccc(Cl)cc2)no1 [Example 325, (3R)-3-amino-5-[(4-chlorophenyl)methyl]-7-[5-[(dimethylamino)methyl]-1,2,4-oxadiazol-3-yl]-8-fluoro-1,1-dioxo-2,3-dihydro-1λ^6,5-benzothiazepin-4-one] | 96 | 869
703 | N[C@H]1CS(=O)(=O)c2cc(F)c(-c3noc(C(F)(F)C(F)(F)F)n3)cc2N(Cc2ccc(Cl)cc2)C1=O [Example 326, (3R)-3-amino-5-[(4-chlorophenyl)methyl]-8-fluoro-1,1-dioxo-7-[5-(1,1,2,2,2-pentafluoroethyl)-1,2,4-oxadiazol-3-yl]-2,3-dihydro-1λ^6,5-benzothiazepin-4-one] | 129 | 908
2330 | C#CCOCCOCCOCCCC(C)(C)c1nc(-c2cc3c(cc2F)S(=O)(=O)C[C@H](N)C(=O)N3Cc2ccc(Cl)cc2)no1 [Example 327, (3R)-3-amino-5-[(4-chlorophenyl)methyl]-7-[5-[1,1-dimethyl-4-[2-(2-prop-2-ynoxyethoxy)ethoxy]butyl]-1,2,4-oxadiazol-3-yl]-8-fluoro-1,1-dioxo-2,3-dihydro-1λ^6,5-benzothiazepin-4-one] | 104 | 722
1080 | CN(C)C(=O)c1nc(-c2cc3c(cc2F)S(=O)(=O)C[C@H](N)C(=O)N3Cc2ccc(OC(F)(F)F)cc2)no1 [Example 328, 3-[(3R)-3-amino-8-fluoro-1,1,4-trioxo-5-[[4-(trifluoromethoxy)phenyl]methyl]-2,3-dihydro-1λ^6,5-benzothiazepin-7-yl]-N,N-dimethyl-1,2,4-oxadiazole-5-carboxamide] | 120 | 1960
198 | NC(c1nc(-c2cc3c(cc2F)S(=O)(=O)C[C@H](N)C(=O)N3Cc2ccc(OC(F)(F)F)cc2)no1)C(F)(F)F (stereo partly drawn) [Example 329, (3R)-3-amino-7-[5-(1-amino-2,2,2-trifluoro-ethyl)-1,2,4-oxadiazol-3-yl]-8-fluoro-1,1-dioxo-5-[[4-(trifluoromethoxy)phenyl]methyl]-2,3-dihydro-1λ^6,5-benzothiazepin-4-one] | 70 | 5330

SMILES | EC50 (primary human T-cells [2]) [nM] | Emax (primary human T-cells [1]) [%] | EC50 (primary human T-cells [1]) [nM]
CCOC(=O)N1CC2CC(c3nc(-c4cc5c(cc4F)S(=O)(=O)C[C@H](N)C(=O)N5Cc4ccc(Cl)cc4)no3)(C2)C1 [Example 315, ethyl 1-[3-[(3R)-3-amino-5-[(4-chlorophenyl)methyl]-8-fluoro-1,1,4-trioxo-2,3-dihydro-1λ^6,5-benzothiazepin-7-yl]-1,2,4-oxadiazol-5-yl]-3-azabicyclo[3.1.1]heptane-3-carboxylate] | 1030 | 131 | –
CC(C)OC(=O)N1CC2CC(c3nc(-c4cc5c(cc4F)S(=O)(=O)C[C@H](N)C(=O)N5Cc4ccc(Cl)cc4)no3)(C2)C1 [Example 316, isopropyl 1-[3-[(3R)-3-amino-5-[(4-chlorophenyl)methyl]-8-fluoro-1,1,4-trioxo-2,3-dihydro-1λ^6,5-benzothiazepin-7-yl]-1,2,4-oxadiazol-5-yl]-3-azabicyclo[3.1.1]heptane-3-carboxylate] | 679 | 112 | –
COC(=O)N1CC2CC(c3nc(-c4cc5c(cc4F)S(=O)(=O)C[C@H](N)C(=O)N5Cc4ccc(Cl)cc4)no3)(C2)C1 [Example 317, methyl 1-[3-[(3R)-3-amino-5-[(4-chlorophenyl)methyl]-8-fluoro-1,1,4-trioxo-2,3-dihydro-1λ^6,5-benzothiazepin-7-yl]-1,2,4-oxadiazol-5-yl]-3-azabicyclo[3.1.1]heptane-3-carboxylate] | 2230 | 142 | –
